Seven compounds from PubChem BioAssay AID1259407 (Chemical Carcinogenesis Research Information System (CCRIS), 2018) can be followed below.

This data set relates to CCRIS mutagenicity, Ames/micronucleus/aberration tests. The data set can be described thus: CCRIS mutagenicity studies.
Setting [1] is: Test System: AMES SALMONELLA TYPHIMURIUM, Strain/Indicator: TA98, Metabolic Activation: HAMSTER, LIVER, S-9, AROCLOR 1254 (10%), Method: PREINCUBATION
The mark [2] stands for this setting: Test System: AMES SALMONELLA TYPHIMURIUM, Strain/Indicator: TA98, Metabolic Activation: RAT, LIVER, S-9, AROCLOR 1254 (10%), Method: PREINCUBATION
Setting [3] is: Test System: AMES SALMONELLA TYPHIMURIUM, Strain/Indicator: TA100, Metabolic Activation: HAMSTER, LIVER, S-9, AROCLOR 1254 (10%), Method: PREINCUBATION
[4] abbreviates: Test System: AMES SALMONELLA TYPHIMURIUM, Strain/Indicator: TA100, Metabolic Activation: NONE, Method: PREINCUBATION
Setting [5] is: Test System: AMES SALMONELLA TYPHIMURIUM, Strain/Indicator: TA100, Metabolic Activation: RAT, LIVER, S-9, AROCLOR 1254 (10%), Method: PREINCUBATION
[6] abbreviates: Test System: AMES SALMONELLA TYPHIMURIUM, Strain/Indicator: TA1535, Metabolic Activation: HAMSTER, LIVER, S-9, AROCLOR 1254 (10%), Method: PREINCUBATION
Where [7] appears, read: Test System: AMES SALMONELLA TYPHIMURIUM, Strain/Indicator: TA1535, Metabolic Activation: NONE, Method: PREINCUBATION
The mark [8] stands for this setting: Test System: AMES SALMONELLA TYPHIMURIUM, Strain/Indicator: TA1535, Metabolic Activation: RAT, LIVER, S-9, AROCLOR 1254 (10%), Method: PREINCUBATION
Setting [9] is: Test System: AMES SALMONELLA TYPHIMURIUM, Strain/Indicator: TA98, Metabolic Activation: NONE, Method: PREINCUBATION

Activity calls are given as the source filed them. No rule for the calls is given here.

As to `CCSC(=O)N(CC)C1CCCCC1`, the mutagenic call runs as follows: (End Point: In vitro chromosomal aberrations, Test System: Human lymphocytes, Metabolic Activation: None) “inactive; negative”; (End Point: In vitro chromosomal aberrations, Test System: Human lymphocytes, Metabolic Activation: S-9 (No additional details provided in source)) “inactive; negative”; (End Point: In vivo micronucleus, Test System: Bone marrow, Species: Mouse, Strain/Sex: CD/Female, Route: Oral) “inactive; negative”; (End Point: In vivo micronucleus, Test System: Bone marrow, Species: Mouse, Strain/Sex: CD/Male, Route: Oral) “inactive; negative”.

`O=C(O)c1cc(Cl)ccc1O`: the mutagenic call (Test System: AMES SALMONELLA TYPHIMURIUM, Strain/Indicator: TA1538, Metabolic Activation: NONE, Method: STANDARD PLATE) is “inactive; negative” and the mutagenic call (Test System: AMES SALMONELLA TYPHIMURIUM, Strain/Indicator: TA1538, Metabolic Activation: RAT,LIVER, S-9, AROCLOR 1254, Method: STANDARD PLATE) was “inactive; negative”.

Regarding `CC(O)CBr` (stereo unspecified), the mutagenic call was “inactive; negative” (Test System: AMES SALMONELLA TYPHIMURIUM, Strain/Indicator: TA97, Metabolic Activation: HAMSTER, LIVER, S-9, AROCLOR 1254 (10%), Method: PREINCUBATION); “inactive; negative” (Test System: AMES SALMONELLA TYPHIMURIUM, Strain/Indicator: TA97, Metabolic Activation: NONE, Method: PREINCUBATION); “inactive; negative” (Test System: AMES SALMONELLA TYPHIMURIUM, Strain/Indicator: TA97, Metabolic Activation: RAT, LIVER, S-9, AROCLOR 1254 (10%), Method: PREINCUBATION); “inactive; negative” under setting [1]; “inactive; negative” under setting [2]; “inactive; negative” under setting [3]. Further, the mutagenic call under setting [4] was “active; positive”; the mutagenic call under setting [5] is “active; positive”; the mutagenic call under setting [6] is “active; positive”; the mutagenic call under setting [7] is “active; positive”; the mutagenic call under setting [8] was “active; positive”.

As to `CCCCCCCCCCCCOS(=O)(=O)O`, the mutagenic call runs as follows: under setting [1], “inactive; negative”; under setting [9], “inactive; negative”; under setting [2], “inactive; negative”; under setting [3], “inactive; negative”; under setting [4], “inactive; negative”; under setting [5], “inactive; negative”. Besides, the mutagenic call runs as follows: under setting [6], “inactive; negative”; under setting [7], “inactive; negative”; under setting [8], “inactive; negative”; (Test System: AMES SALMONELLA TYPHIMURIUM, Strain/Indicator: TA1537, Metabolic Activation: HAMSTER, LIVER, S-9, AROCLOR 1254 (10%), Method: PREINCUBATION) “inactive; negative”; (Test System: AMES SALMONELLA TYPHIMURIUM, Strain/Indicator: TA1537, Metabolic Activation: NONE, Method: PREINCUBATION) “inactive; negative”; (Test System: AMES SALMONELLA TYPHIMURIUM, Strain/Indicator: TA1537, Metabolic Activation: RAT, LIVER, S-9, AROCLOR 1254 (10%), Method: PREINCUBATION) “inactive; negative”.

With `CN(C)CCNS(=O)(=O)c1cccc2cccnc12`, the mutagenic call runs as follows: (Test System: AMES SALMONELLA TYPHIMURIUM, Strain/Indicator: TA98, Metabolic Activation: NONE, Method: STANDARD PLATE) “inactive; negative”; (Test System: AMES SALMONELLA TYPHIMURIUM, Strain/Indicator: TA98, Metabolic Activation: RAT, LIVER, S-9, AROCLOR 1254, Method: STANDARD PLATE) “inactive; negative”; (Test System: AMES SALMONELLA TYPHIMURIUM, Strain/Indicator: TA100, Metabolic Activation: NONE, Method: STANDARD PLATE) “inactive; negative”; (Test System: AMES SALMONELLA TYPHIMURIUM, Strain/Indicator: TA100, Metabolic Activation: RAT, LIVER, S-9, AROCLOR 1254, Method: STANDARD PLATE) “inactive; negative”; (Test System: AMES SALMONELLA TYPHIMURIUM, Strain/Indicator: TA1535, Metabolic Activation: NONE, Method: STANDARD PLATE) “inactive; negative”; (Test System: AMES SALMONELLA TYPHIMURIUM, Strain/Indicator: TA1535, Metabolic Activation: RAT, LIVER, S-9, AROCLOR 1254, Method: STANDARD PLATE) “inactive; negative”. The mutagenic call is, setting by setting: (Test System: AMES SALMONELLA TYPHIMURIUM, Strain/Indicator: TA1537, Metabolic Activation: NONE, Method: STANDARD PLATE) “inactive; negative”; (Test System: AMES SALMONELLA TYPHIMURIUM, Strain/Indicator: TA1537, Metabolic Activation: RAT, LIVER, S-9, AROCLOR 1254, Method: STANDARD PLATE) “inactive; negative”.

As for `O=C(OCc1ccccc1[N+](=O)[O-])c1ccccc1`, the mutagenic call is “inactive; negative” under setting [9]; “inactive; negative” under setting [4]; “inactive; negative” (Test System: AMES SALMONELLA TYPHIMURIUM, Strain/Indicator: TA100, Metabolic Activation: RAT, LIVER, S-9, AROCLOR 1254, Method: PREINCUBATION).

With `CC(C)(Cl)OC(C)(C)Cl`, the mutagenic call (Test System: AMES SALMONELLA TYPHIMURIUM, Strain/Indicator: TA100, Metabolic Activation: RAT, LIVER, S-9, AROCLOR 1254, Method: DESICCATOR) was “active; positive”.
